Literature values as cited in patent US9873913B2, “Mutation testing” (Roche Molecular Systems, Inc., priority 2013, dated 2018).

System: non-small cell lung cancer (NSCLC) patients
Conditions: relatively small subset of NSCLC patients after chemotherapy

SMILES	effect on survival (in words)
C#Cc1cccc(Nc2ncnc3cc(OCCOC)c(OCCOC)cc23)c1 [erlotinib]	prolong survival
COc1cc2ncnc(Nc3ccc(F)c(Cl)c3)c2cc1OCCCN1CCOCC1 [gefitinib]	prolong survival
